Experiment [1] has as its system cellules du carcinome pulmonaire de Lewis. Put plainly: Survival and tumour growth in mice grafted with Lewis lung carcinoma, five diets (alkylglycerol 18:1 and/or DFMO, normal or polyamine-deficient diet). Type of experiment: in vivo, souris C57BL/6. An excerpt:
Cette figure représente les variations de volume de tumeurs (en mm^3, indiqués en ordonnées) en fonction du nombre de jours (indiqués en abscisses) écoulés après la greffe de ladite tumeur chez des souris C57BL/6. Les souris sont greffées avec une tumeur solide de cellules du carcinome pulmonaire de Lewis.
Cette figure représente le pourcentage de survie (en ordonnées) de souris C57BL/6, en fonction du nombre de jours (en abscisses) écoulés après la greffe d'une tumeur solide de cellules du carcinome pulmonaire de Lewis. La représentation utilisée est sous forme de graphique de Kaplan-Meier, le test statistique Log-Rank est utilisé pour la comparaison de la survie (fiabilité p < 0,0001).
(§1) Des souris femelles C57BL/6, âgées de 8 semaines et pesant 20g (élevage Janvier, Le Genest St Isle, France) sont acclimatées 1 semaine avant le début de l'étude. La manipulation des animaux est réalisée en accord avec les directives éthiques pour l'expérimentation et selon les recommandations de l'Association Européenne de Recherche Biomédicale.
(§2) Les cellules de carcinome pulmonaire de Lewis (3LL) ont été obtenues auprès de l'ECACC (European collection of cell cultures) et greffées par injection intramusculaire dans les pattes postérieures de souris femelles C57BL/6 selon la méthode décrite précédemment (Hergueux J. et al., Exp. Cell Biol., 1983, 51(4), 181-191) pour produire des cellules tumorales. Après 20 jours, les cellules tumorales sont collectées et dispersées dans du PBS, comptées et diluées pour atteindre 1 ×10^6 cellules / 100 µL, avant d'être greffées dans les souris.
Le modèle animal (souris C57BL/5) et le modèle tumoral (carcinome de Lewis) sont décrits précédemment. Les souris sont greffées avec […] tumorales, par injection intramusculaire. […]

Experiment [2] has as its system néo vascularisation induite par le Matrigel. In words: Matrigel plug angiogenesis test (haemoglobin content of the gel, VEGF-induced). Type of experiment: in vivo, souris C57BL/5. The conditions noted are these: PDD. The protocol: Cette figure représente le pourcentage de concentration en hémoglobine dans du Matrigel (BD Biosciences) (en ordonnées), 10 jours après injection dudit Matrigel (500µL) à des souris.
La colonne du centre représente les souris témoins ayant été traitées avec du VEGF. Ces souris ont été greffées avec du Matrigel contenant du VEGF (50 ng/mL). Le pourcentage de concentration en hémoglobine est fixé arbitrairement à 100% et sert de référence pour quantifier les pourcentages des deux autres groupes.
La néo vascularisation induite par le Matrigel est dosée suivant une modification de la méthode de Kimura et al. (Cancer Sci. 2004, 95(9), 758-764). En résumé, tous les animaux ont été traités par injection sous-cutanée de Matrigel (500µL) contenant 32 unités/mL d'héparine et éventuellement 50 ng/mL de VEGF (Vascular Endothelial Growth Factor).
Le modèle animal (souris C57BL/5) et le Matrigel sont décrits précédemment.
Le Matrigel est injecté en sous-cutané (500 µL par injection) à trois groupes de 6 souris : • Groupe 1 : Matrigel sans VEGF, régime alimentaire appauvri en polyamines (PDD). • Groupe 2 : Matrigel avec VEGF, régime alimentaire appauvri en polyamines (PDD). • Groupe 3 : Matrigel avec VEGF, régime alimentaire appauvri en polyamines (PDD), enrichi en alkylglycérol 18 :1 (25 mg par jour et par souris)
Dix jours après injection les souris sont euthanasiées et le Matrigel est prélevé, pesé, photographié. Le Matrigel est ensuite dissocié mécaniquement dans du PBS, homogénéisé puis est mis dans une solution de Drabkin's pour le dosage de l'hémoglobine. Les solutions sont déposées dans des puits d'une plaque 96 puits contenant une solution de Drabkin's et lecture dans un lecteur de plaque à 540 nm.
La concentration en hémoglobine observe dans le Matrigel du groupe 2 est fixé arbitrairement à 100% et sert de référence lors des comparaisons avec les résultats obtenus avec les groupes 1 et 3 (Figure 8).

Experiment [3] relates to cellules du carcinome pulmonaire de Lewis. In words: Survival study by diet (PDD or PCD) and alkylglycerol 18:1 or olive oil, Lewis lung carcinoma graft. The following applies: for différence dans la valeur de survie médiane: Log-Rank; for valeur médiane de survie: 25 mice per group. Type of experiment: in vivo, souris C57BL/6.
Description: Cette figure représente le pourcentage de survie (en ordonnées) de souris, en fonction du nombre de jours (en abscisses) écoulés après la greffe d'une tumeur solide de cellules du carcinome pulmonaire de Lewis. Les souris sont réparties en 2 groupes de 25 individus. Les deux groupes sont alimentés avec des régimes alimentaires différents. Les valeurs médianes de survie sont observées. La représentation utilisée est sous forme de graphique de Kaplan-Meier, le test statistique Log-Rank est utilisé pour la comparaison de la survie.
as §1, §2
Au premier jour de l'expérience, 0,1 ×10^6 cellules tumorales sont greffées par injection intramusculaire, à chaque souris. Les souris greffées sont réparties aléatoirement dans les cages par groupe de 25 individus.
Quatre groupes sont constitués, chacun comprenant 25 souris greffées avec des cellules tumorales. Les souris sont réparties dans 8 cages avec 12 à 13 individus par cage. Chaque groupe de souris comprend les individus de deux cages. Chaque groupe de souris est alimenté avec un régime alimentaire différent. La consommation d'aliments est suivie deux fois par semaine, et le nombre de décès deux fois par jour.
Les quatre types de régime alimentaire sont : • régime 1, aliment synthétique appauvri en polyamines (PDD) et enrichi en huile d'olive (20 g / kg d'aliment), • régime 2, aliment synthétique appauvri en polyamines (PDD) et enrichi en alkylglycérol 18 :1 (25 mg par jour et par souris), • régime 3, aliment synthétique contenant des polyamines (PCD), enrichi en huile d'olive (20 g / kg d'aliment), • régime 4, aliment synthétique contenant des polyamines (PCD), enrichi en alkylglycérol 18 :1 (25 mg par jour et par souris).

Experiment [4] relates to carcinome de Lewis. Put plainly: Antitumour agent Example 2: chemotherapy with PCD/PDD diets, DFMO and alkylglycerol C18:1, Lewis carcinoma graft. Type of experiment: in vivo, souris C57BL/5. The protocol:
Le modèle animal (souris C57BL/5) et le modèle tumoral (carcinome de Lewis) sont décrits précédemment. Les souris sont greffées avec 0,1 ×10^6 cellules tumorales, par injection intramusculaire.
Quatres ensembles d'animaux sont constitués : A, B, C et D. • L'ensemble A est traité avec une monochimiothérapie a forte dose (cyclophosphamide, 90 mg / kg / semaine). • L'ensemble B est traité avec une monochimiothérapie a faible dose (cyclophosphamide, 20 mg / kg / semaine). • L'ensemble C est traité avec une polychimiothérapie combinant trois agents antitumoraux (methotrexate, cyclophosphamide, vindesine). Le premier jour de l'expérience l'ensemble C est traité avec le methotrexate (1,7 mg / kg). Le second jour de l'expérience l'ensemble C est traité avec le cyclophosphamide (20 mg / kg). Le troisième jour de l'expérience l'ensemble C est traité avec la vindesine (0,25 mg/kg). • L'ensemble D est traité avec une solution saline (NaCl, 0,14 M), il s'agit d'un groupe témoin.
Pour chacun des 4 ensembles, les souris sont réparties en 8 groupes (soit 32 groupes au total) en fonction de leurs alimentations : • Le groupe 1a : aliment synthétique contenant des polyamines (PCD), • le groupe 1b : aliment synthétique contenant des polyamines (PCD), et avec une eau contenant du DFMO, • le groupe 1c : aliment synthétique contenant des polyamines (PCD), enrichi en alkylglycérol, • le groupe 1d : aliment synthétique contenant des polyamines (PCD), enrichi en alkylglycérol, et avec une eau contenant du DFMO, • le groupe 2a : aliment synthétique appauvri en polyamines (PDD), • le groupe 2b : aliment synthétique appauvri en polyamines (PDD), et avec une eau contenant du DFMO, • le groupe 2c : aliment synthétique appauvri en polyamines (PDD), enrichi en alkylglycérol, • le groupe 2d : aliment synthétique appauvri en polyamines (PDD), enrichi en alkylglycérol, et avec une eau contenant du DFMO,
L'alkylglycérol est le C 18 :1 (alcool sélachylique) et est mélangé à l'alimentation des souris (25 mg par jour et par souris). Le DFMO est mélangé à l'eau de boisson des souris (30 g/L). […]

Where [5] appears, read: régime appauvri en polyamines (PDD), alkylglycérol 18 :1 25 mg / souris / jour and/or DFMO 30 g / L in drinking water, DFMO alone given with huile d'olive.
Where [6] appears, read: cyclophosphamide à faible dose (20 mg / kg / semaine), animaux PDD + DFMO (30 g/L).

The structures appear in SMILES notation.

Experimental findings from patent EP2440195B1, “USE OF ALKYLGLYCEROLS FOR PREPARING DRUGS” (Université de Rennes I, priority 2009, dated 2010) are described below.

For `CCCCCCCC/C=C\CCCCCCCCOCC(O)CO` (stereo not shown) [alkylglycérol 18 :1, alcool sélachylique], the “valeur médiane de survie” value stood at 30 jours in experiment [1] (setting [5]); 31 jours in experiment [1] (régime contenant un taux normal de polyamines (PCD), alkylglycérol 18 :1 25 mg / souris / jour, days after tumour graft); 26 jours in experiment [3] (régime appauvri en polyamines (PDD, 10 µg / kg d'aliment), alkylglycérol 18 :1 25 mg / souris / jour or huile d'olive); 26 jours in experiment [3] (régime contenant des polyamines (PCD, 128 mg / kg d'aliment), alkylglycérol 18 :1 25 mg / souris / jour). Moreover, the “effet anti angiogénique” value in experiment [2] (Matrigel with VEGF) was “observé”. Also, the “réduction de l'angiogénèse” value in experiment [2] (Matrigel with VEGF, C18 :1 25 mg par jour et par souris, vs VEGF group) is reported as about 40%. Moreover, in experiment [2] (relative to VEGF group (50 ng/mL) fixed at 100%, 10 days after injection, alkylglycérol 18 :1 25 mg par jour et par souris, 6 mice), the “concentration en hémoglobine dans le Matrigel” value is on record as 58,56%. The “différence dans la valeur de survie médiane” value is on record as “Aucune différence significative” in experiment [3] (C18 :1 (PCD, régime 4) vs huile d'olive (PCD, régime 3), Figure 4); “Aucune différence significative” in experiment [3] (C18 :1 (PDD, régime 2) vs C18 :1 (PCD, régime 4), Figure 7); “Aucune différence significative” in experiment [3] (C18 :1 (PDD, régime 2) vs huile d'olive (PCD, régime 3), Figure 5); “Aucune différence significative” in experiment [3] (C18 :1 (PDD, régime 2) vs huile d'olive (PDD, régime 1), Figure 3). For the same compound, the “influence sur la durée médiane de survie” value in experiment [3] (overall conclusion of the four-diet survival study) is “n'a pas d'influence significative”. Also, in experiment [4] (C18 :1 25 mg par jour et par souris added to chemotherapy + PDD + DFMO), the “effect of C18 :1 intake on the benefit of chemotherapy” value was “amplifie les effets bénéfiques de la chimiothérapie”.

On to `O=P1(N(CCCl)CCCl)NCCCO1` (stereo not shown) [cyclophosphamide], for which, in experiment [4] (setting [6]), the “dissémination métastatique pulmonaire” value is recorded as “efficace” and the “progression de la greffe tumorale” value is “efficace”.

For the compound `NCCCC(N)(C(=O)O)C(F)F` (racemic) [DFMO, D,L-2-(difluorométhyl)ornithine, reference compound], in experiment [1] (setting [5]), the “valeur médiane de survie” value came out at 35 jours.
